Laboratory results from patent US20260242390A1, “TOTAL SYNTHESES OF PORTIMINE A AND ANALOGUES THEREOF AS SMALL MOLECULE MODULATORS OF NMD3” (priority 2023, published 2026).

Test system: Jurkat cells
Assay: Initial SAR: activity of PAL functionalized PTMA analogs
Assay type: cell-based, human
Settings: in the concentrate range
From the text: FIG. 3. Initial SAR studies: Assessing activity of PAL functionalized PTMA analogs. […] (A) PA and Ph-PA show less toxic to healthy PBMCs compared to Jurkat cells. […] (B) Immunoblot of caspase-3 in Jurkat and PBMCs with indicated conditions.
• 1) Portimine A and its functional analogs show stereo-selective acute toxicity in cancer cells (FIG. 1). […] (B) Structure of portimine related analogs: phenyl-portimine A (Ph-PA, 36) and epi-portimine A (ePA, 38). Structure of fully functionalized portimine A-based epimeric probe pair: portimine A-diazirine-alkyne (PA-DA, 35-2) and epi-portimine A-diazirine-alkyne (ePA-DA, 35-1). (C) Cell viability analysis of portimine A and analogs. Jurkat cells were treated with increasing concentrations of portimine A and analogs for 24 hours. All presented data as mean of biological replicated experiments (n=3). […] Jurkat cells were treated with portimine A or analogs for 12 hours at 10 nM. […] Structurally related negative control ePA and PB are non-toxic in all cell types in the current concentrate range. PBMCs (25k per well), Jurkat (10k per well). […] Cell cycle analysis in Jurkat cells (FIG. 2). Jurkat cells were treated with 10 nM of indicated compounds for 24 hours, and propodium iodide was used to identify different stages of cells by flow cytometry. […] (A) PA and Ph-PA show less toxic to healthy PBMCs compared to Jurkat cells. […] (B) Immunoblot of caspase-3 in Jurkat and PBMCs with indicated conditions. […] (A) Pharmacokinetic studies of mouse intraperitoneal (i.p.) and oral (p.o.) administration for portimine (n=3). […] Impact of PA [0.3 or 1 mg/kg intraperitoneally] on MC38 tumor growth in WT mice (n=6). (C) Kaplan-Myer survival curve of WT MC38 tumor-bearing mice (n=6) after treatment with PA as described in (D). Mice were euthanized when tumor area exceeded 2000 mm^3. Statistical analysis was performed using ANOVA analysis followed by multiple comparisons test, * p≤0.05. Treatment condition: Jurkat (60 M per condition); PA-DA/ePA-DA concentration: 0.5 uM, PA or ePA: 5 uM; Incubate with probe with or without competitors (PA, ePA) for 30 min; UV irradiated for 20 min. (0.5 uM PA-DA add a no-UV condition), Standard pulldown & biotin-enrichment and western blot analysis (Elute condition: 2× sample buffer+500 uM biotin, boil for 20 mins); Primary antibody NMD3 (ProteinTech, 1:150), Actin (BioRad, 1:10000). […] Cell lysates were fractionated by sucrose gradient (5-50%) and each fraction were analyzed by western blot. eIF6 levels increase in 60S subunit fraction and decrease in ribosome-free fractions after PA treatment. […]

SMILES	activity of PAL functionalized PTMA analogs
C#CCCC1(CCNC(=O)c2ccc(C3=C[C@@H]4[C@@H]5O[C@]6(CC[C@H](O6)C(C)C[C@@H](O)C5=O)CC(O)C5=NCC[C@@]54CC3)cc2)N=N1 (stereo partly drawn) [PA-DA, portimine A-diazirine-alkyne]	analogous activity to PTMA
C=CC1=C[C@@H]2[C@@H]3O[C@]4(CC[C@H](O4)C(C)C[C@@H](O)C3=O)C[C@@H](O)C3=NCC[C@@]32CC1 (stereo partly drawn) [ePA, epi-portimine A]	no activity
C#CCCC1(CCNC(=O)c2ccc(C3=C[C@@H]4[C@@H]5O[C@]6(CC[C@H](O6)C(C)C[C@@H](O)C5=O)C[C@@H](O)C5=NCC[C@@]54CC3)cc2)N=N1 (stereo partly drawn) [ePA-DA, epi-portimine A-diazirine-alkyne]	no activity
